Publication PMC6216040, “Repurposing of an old drug: In vitro and in vivo efficacies of buparvaquone against Echinococcus multilocularis” (International Journal for Parasitology: Drugs and Drug …, 2018)

System: E. multilocularis metacestodes
Assay: PGI-assay: drug-induced damage on in vitro cultured metacestodes (Pathogen Box screening cascade and EC50)
Assay type: cell-based, Echinococcus multilocularis
Details: for PGI release, % of the Tx-100 control, 5d / PGI release, % of the Tx-100 control, 12d: 10 µM, singlets; for PGI release, % of the Tx-100 control, 5d / PGI release, % of Tx-100 control, average, 5d: 5 days of incubation; for PGI release, % of the Tx-100 control, 12d / PGI release, % of Tx-100 control, average, 12d: 12 days of incubation; for activity in the screen at 10 μM (confirmed in triplicates, >20% relative PGI release): 5 and 12 days
[1] = confirmatory screening at 10 µM in triplicates, values as % of Tx-100 control

Structure (SMILES) | PGI release, % of the Tx-100 control, 5d [%] | PGI release, % of the Tx-100 control, 12d [%] | further results
CS(=O)(=O)c1cccc(-c2cnc3[nH]cc(-c4ccc(CCC(=O)O)cc4)c3c2)c1 [MMV026020] | -2.92 | -0.12 | –
Nc1nccc2ccc(Oc3ccncc3)cc12 [MMV026313] | -0.49 | -0.99 | –
CCn1ncc2c(NC3CCOCC3)c(CNC(=O)c3ccnn3C)c(C)nc21 [MMV026356] | -0.13 | 0.36 | –
OCc1ccc(-c2cncc(Nc3cccc(Cl)c3)c2)cc1 [MMV026468] | 9.97 | 54.98 | PGI release, % of Tx-100 control, average, 5d (1 µM, triplicates): 0.57%; PGI release, % of Tx-100 control, average, 12d (1 µM, triplicates): -1.50%; activity in the screen at 10 μM (confirmed in triplicates, >20% relative PGI release): active; PGI release, % of Tx-100 control, average, 5d [1]: 0.62%; PGI release, % of Tx-100 control, average, 12d [1]: 52.89%
O=C(NCCc1ccccc1)c1cc(-c2cccnc2)cnc1NCC1CC1 [MMV026490] | -0.0463 | -0.43 | –
CC(C)(C)CN1C(=O)C(c2ccccc2)(c2ccccc2)N=C1N [MMV026550] | 3.21 | 3.61 | –
OCCc1ccc(Nc2nccc(-c3nnc4ccccn34)n2)cc1 [MMV028694] | 1.98 | 1.79 | –
CC(C)(CN)c1nc(-c2ccc(Cl)c(O)c2)c(-c2ccnc(N)n2)[nH]1 [MMV030734] | -0.31 | -0.25 | –
CNC(=O)C1Cc2c([nH]c3cc(Cl)ccc23)C2(CCN(CCc3ccccc3)CC2)N1 (stereo not drawn) [MMV031011] | 4.51 | 91.49 | PGI release, % of Tx-100 control, average, 5d [1]: -0.91%; PGI release, % of Tx-100 control, average, 12d [1]: -1.45%
FC(F)(F)c1cccc(-c2nc3c(NCc4ccncc4)nccc3[nH]2)c1 [MMV032967] | 0.25 | -2.81 | –
O=C1COCc2ccc(Br)cc2N1Cc1ccc(C(F)(F)F)cc1 [MMV032995] | 0.37 | 1.79 | –
c1ccc(Oc2ccc(-c3cc(N4CCOCC4)n[nH]3)cc2)cc1 [MMV045105] | -0.42 | 0.07 | –
COc1cc(C(F)(F)F)nc2ccc(C)c(N)c12 [MMV047015] | -0.69 | -0.79 | –
N#Cc1ccc(-c2ccc(OCC(N)=O)cc2)cc1 [MMV053220] | -4.06 | -1.40 | –
CC(=O)N1CCc2cc3nc(C)cc(C)c3cc21 [MMV054312] | 0.77 | -0.65 | –
Cc1cc(C)nc(-n2nc(C)cc2Nc2ccccc2)n1 [MMV062221] | -5.83 | 1.28 | –
Cc1nn(Cc2ccccc2)c(Cl)c1C(=O)NC1CCCCCC1 [MMV063404] | 0.0181 | 0.28 | –
FC(F)(F)c1nnc2ccc(Cl)nn12 [MMV069458] | -0.54 | 0.02 | –
O=C1N(Cc2cc3ccccc3s2)CC2CN(Cc3ccccc3)CCN12 (stereo not drawn) [MMV084603] | -3.64 | 0.62 | –
O=C(Nc1cnc2ccccc2c1)c1cccc(-n2cnnn2)c1 [MMV084864] | -2.18 | -3.92 | –
COc1cncc(-c2cncc(N3CCN(c4ccncc4)CC3)n2)c1 [MMV085071] | 0.27 | 0.48 | –
O=C(C(Cc1c[nH]c2ccccc12)NS(=O)(=O)c1ccc(Cl)cc1)N1CCCCC1 (stereo not drawn) [MMV085210] | -0.40 | 0.0121 | –
CCCNC(=O)N1CCC2(CC1)CC(=O)c1cc(C)ccc1O2 [MMV085230] | -0.40 | -0.0743 | –
N#Cc1ccc(-c2cnc(N)c(-c3ccc(C(N)=O)cc3)n2)cc1 [MMV085499] | 7.58 | 0.90 | –
CCOC(=O)NC(=O)c1ccsc1NC(=O)c1nc2ccccc2s1 [MMV090930] | 11.85 | 28.09 | PGI release, % of Tx-100 control, average, 5d (1 µM, triplicates): 2.46%; PGI release, % of Tx-100 control, average, 12d (1 µM, triplicates): 6.26%; activity in the screen at 10 μM (confirmed in triplicates, >20% relative PGI release): active; PGI release, % of Tx-100 control, average, 5d [1]: 13.69%; PGI release, % of Tx-100 control, average, 12d [1]: 46.13%
O=C(Nc1nnc(-c2ccc(Cl)cc2)o1)c1cccc(C(F)(F)F)c1 [MMV102872] | 32.35 | 28.26 | PGI release, % of Tx-100 control, average, 5d [1]: -0.31%; PGI release, % of Tx-100 control, average, 12d [1]: -1.19%
CCC(C)NC(=O)c1ccc(NC(=O)C2(c3ccccc3)CCCC2)cc1 (stereo not drawn) [MMV146306] | -1.42 | -5.77 | –

Structure (SMILES) | PGI release, % of the Tx-100 control, 5d [%] | PGI release, % of the Tx-100 control, 12d [%] | further results
CCOC(=O)c1c(NC(=O)c2c(F)c(F)c(F)c(F)c2F)sc(C(N)=O)c1C [MMV153413] | 1.93 | 9.70 | –
Cc1cc(Cl)ccc1NC(=O)CCc1ccc(S(=O)(=O)NCC(C)C)cc1 [MMV161996] | -0.05 | 0.10 | –
CNC(=O)C1Cc2ccccc2N1C(=O)Cc1ccc(F)cc1 (stereo not drawn) [MMV188296] | -0.45 | -0.28 | –
COc1ccc(C2(C(=O)Nc3ccc(Br)cc3)CCCC2)cc1 [MMV200748] | -1.03 | -1.33 | –
COc1ccc(OC(C)C(=O)Nc2ccc(Cl)cc2C)cc1 (stereo not drawn) [MMV202458] | 0.0146 | 6.22 | –
CCC(=O)Nc1ccccc1C(=O)Nc1ccccn1 [MMV202553] | -0.91 | 0.26 | –
COc1cccc(NC(=O)c2c(NC(=O)c3cccnc3)sc3c2CCC3)c1 [MMV228911] | 6.25 | 18.91 | –
COc1cccc(-n2nnnc2S(C)(=O)=O)c1 [MMV272144] | -0.69 | 0.11 | –
COc1cccc(-c2cc3c(Nc4cccnc4)nccc3[nH]2)c1 [MMV392832] | 0.24 | -1.65 | –
CN1CCN(c2nccc3[nH]c(-c4cccc(F)c4)cc23)CC1 [MMV393144] | -0.30 | 0.40 | –
Cc1cc(=O)[nH]c(-n2nc(C)cc2C)n1 [MMV393995] | -1.49 | -4.16 | –
CCc1nc2ccc(C(=O)NCc3ccc4c(c3)OCO4)cn2c1N(C)Cc1cccs1 [MMV407539] | -0.20 | 24.66 | PGI release, % of Tx-100 control, average, 5d [1]: -1.01%; PGI release, % of Tx-100 control, average, 12d [1]: 3.14%
CCOc1ccccc1NC(C)C(=O)Nc1cc(C(F)(F)F)ccc1N1CCOCC1 (stereo not drawn) [MMV407834] | -0.40 | -0.68 | –
COC(=O)c1c(NC(=O)c2c(F)c(F)c(F)c(F)c2F)sc2c1CCCCC2 [MMV461553] | 3.92 | 19.16 | –
CC(C)(C)c1cnc(NC(=O)c2ccccc2O)s1 [MMV495543] | -1.40 | -5.38 | –
CS(=O)(=O)Cc1nc2ccccc2oc1=O [MMV553002] | -3.93 | -1.57 | –
c1ccc(-c2cc(N3CCCCC3)c3ccccc3n2)nc1 [MMV560185] | 0.52 | -0.29 | –
CCN(CC)S(=O)(=O)c1ccc(C(=O)Nc2cc(C)nn2-c2nc(C)c(C)c(=O)[nH]2)cc1 [MMV595321] | -0.14 | -1.13 | –
CCC(Sc1nc2ccccc2o1)C(=O)Nc1nnc(C)s1 (stereo not drawn) [MMV611037] | -0.81 | -1.11 | –
O=C(NCCN1CCCC1)c1cc(NCCN2CCOCC2)nc2ccc(Cl)cc12 [MMV634140] | 0.01 | -0.0759 | –
CN1CCCC1CCO[C@](C)(c1ccccc1)c1ccc(Cl)cc1 (stereo partly drawn) [MMV637229] | 4.53 | 10.67 | –
O=C(Nc1ccc2c(c1)B(O)OC2)c1ccccc1C(F)(F)F [MMV652003] | 1.72 | 7.32 | –
Cc1nc(-c2ccccn2)nc(N(C)CCc2ccccc2)c1Cl [MMV658988] | 22.86 | 30.08 | PGI release, % of Tx-100 control, average, 5d [1]: 4.97%; PGI release, % of Tx-100 control, average, 12d [1]: 10.18%
Cc1nc(-c2ccccn2)nc(NCCc2ccc(S(C)(=O)=O)cc2)c1Cl [MMV658993] | -0.19 | 1.18 | –
Cc1nc(-c2ccccn2)nc(N2CCC(Cc3ccccc3)C2)c1Cl (stereo not drawn) [MMV659004] | 11.75 | 58.47 | PGI release, % of Tx-100 control, average, 5d [1]: 2.44%; PGI release, % of Tx-100 control, average, 12d [1]: 11.08%
FC(F)(F)c1cc(NCCc2ccccc2)nc(-c2ccccn2)n1 [MMV659010] | 0.61 | 3.66 | –
